Columns and labels:
[1] = test system: cerebral cortical mixed neuronal cells or hippocampal neurons; assay: Oxygen glucose deprivation (OGD) of neurons in culture, cell viability; assay type: cell-based, rat; details: for neuroprotection against OGD-induced neuronal cell death: 200 nM, 500 nM or 1 μM added after 90 mins OGD and 2 h reoxygenation, Hoechst, calcein or MTT
Text: (§1) Primary cultures of cortical and hippocampal neurons were harvested from 18-day-old embryos (E18) taken from timed-pregnant, two-month-old Sprague-Dawley (SD) rats (Charles River Lab., Wilmington, Mass.). Briefly, timed-pregnant SD rats were euthanized and embryos were collected in sterile conditions. Embryonic brains were dissected out by forceps on ice and placed in a petri dish containing ice-cold Hank's Balanced Salt Solution (HBSS) (GIBCO). Meninges were removed under a dissecting microscope and cortical tissues were chopped into small pieces with micro-spring scissors. These tissues were transferred to 15 ml tubes containing trypsin-EDTA (0.025% in HBSS) and DNase I. The tubes were incubated in 37° C. chamber for 15 mins and were agitated every 5 mins. After stopping the trypsinization with 5 ml 10% FBS, these tissues were triturated 15 times with a fire polished Pasteur pipet. Cell clumps were left to settle for 2 mins and the supernatant was transferred to a 15 ml Eppendorf tube. The supernatant was filtered through a 70 μm pore-sized filter (Corning cell strainer) and centrifuged for 5 mins at 1000 rpm. The cells were then resuspended in Neurobasal medium (GIBCO) containing 2% B27 (GIBCO) and 2% N2 (GIBCO) supplements, along with 0.5 mM glutamine, 50 U/ml penicillin/streptomycin.
(§2) Cells were counted using a Neubauer hemocytometer. 1×10^6 cells were seeded on poly-D-lysine-coated 12 well cell culture dish (CORNING) and cultured in incubator (37° C., 5% CO2). Culture medium was first replaced after 24 h, then half of the medium was replaced with fresh medium every three days. As a result, approximately, 90% purity of neurons was obtained as determined by class-III-β tubulin, GFAP and Hoechst 33258 staining. Cells were maintained in culture for about 2 weeks until they were exposed to uncompensated oxidative stress, OGD, or NMDA excitotoxicity.
An in vitro oxygen glucose deprivation (OGD) model was established. Primary cortical neurons were cultured from SD rat embryos. On day in vitro (DIV) 12, cells were washed with phosphate-buffered saline and incubated in glucose-free Neurobasal medium (GIBCO) for 30 mins. The cells were then placed in a modular incubator chamber and incubated in an anaerobic chamber (95% N2, 5% CO2) at 37° C. for 90 mins for OGD.
After 90 mins of OGD exposure, cells were returned to the original medium (Neurobasal medium (GIBCO) containing 2% B27 (GIBCO) and 2% N2 (GIBCO) supplements, along with 0.5 mM glutamine, 50 U/ml penicillin/streptomycin) and placed in a normoxic chamber (37° C., 5% CO2) for 2 h. […] a normoxic chamber (37° C., 5% CO2) for 12 h, after which cells were sampled and assayed for cell viability using different methods as previously described (25-28). Cerebral cortical mixed neuronal cells or hippocampal cells in culture were exposed to either NMDA or uncompensated oxidative stress (UOS) for 12 h by addition of either NMDA (25 μM, 50 μM, or 100 μM) concentration or by the addition of TNFα (10 ng/mL) and H2O2 (50 μM, 100 μM, or 200 μM). Cell viability and neuroprotection in the presence of ELV-N32, ELV-N34, 32:6, or 34:6 were assayed after 12 h.
Cells were washed with 1× Dulbecco's Phosphate Buffered Saline (DPBS) containing no calcium or magnesium (GIBCO) and fixed for 10 mins using ice-cold 4% paraformaldehyde (PFA) followed by 15 mins incubation in 100% methanol. Cells were washed with 1× Phosphate Buffered Saline (PBS) pH 7.4 (GIBCO) and incubated in PBS containing 20 μM Hoechst 33258 (Molecular Probes) for 20 mins. Cells were then washed 3 times with 1×PBS and stored in 1×PBS at 4° C. until they were imaged for microscopy.
One 4×4 tile mosaic was acquired from the center of each well using a Zeiss 510 Meta laser confocal microscope and LSM 510 Meta software. Images were imported into image analysis software ImageJ (National Institutes of Health, Bethesda, Md.) and batch processed using custom macros. […]

[2] = test system: cerebral-cortical mixed neuronal cells; assay: Uncompensated oxidative stress (TNFα plus H2O2) of neurons in culture; assay type: cell-based, rat; details: 200 nM; TNFα 10 ng/mL and H2O2 (50, 100 or 200 μM), 12 h
Text: as §1
as §2, with “Cells were maintained in culture for about 2 weeks until they were exposed to uncompensated oxidative stress, OGD, or NMDA excitotoxicity.” left out
One 4×4 tile mosaic was acquired from the center of each well using a Zeiss 510 Meta laser confocal microscope and LSM 510 Meta software. […] An Otsu auto threshold was applied to each image of Hoechst-stained nuclei, and the area of each detected object was recorded. […]

[3] = 250 nM added after OGD exposure
[4] = 500 nM, 90 min OGD, hippocampal (DIV 12) or cortical (DIV 28) culture

`CC/C=C\C[C@H](O)\C=C/C=C/C=C/[C@H](O)C/C=C\C/C=C\CCCCCCCCCCCCC(=O)[O-].[Na+]` [ELV-N32-Na, sodium (14Z,17Z,20R,21E,23E,25Z,27S,29Z)-20,27-dihydroxydotriaconta-14,17,21,23,25,29-hexaenoate] was tested, and the “neuroprotection against OGD-induced neuronal cell death” value [1] was “elicited neuroprotection” and the “neuroprotection against uncompensated oxidative stress” value [2] was “evoked neuroprotection”.
For `CC/C=C\C[C@H](O)\C=C/C=C/C=C/[C@H](O)C/C=C\C/C=C\CCCCCCCCCCCCCCC(=O)OC` [ELV-N34-Me, methyl (16Z,19Z,22R,23E,25E,27Z,29S,31Z)-22,29-dihydroxytetratriaconta-16,19,23,25,27,31-hexaenoate], the “neuroprotection against OGD-induced neuronal cell death” value [1] was “elicited neuroprotection”.
In the case of `CC/C=C\C[C@H](O)\C=C/C=C/C=C/[C@H](O)C/C=C\C/C=C\CCCCCCCCCCCCC(=O)OC` [ELV-N32-Me, methyl (14Z,17Z,20R,21E,23E,25Z,27S,29Z)-20,27-dihydroxydotriaconta-14,17,21,23,25,29-hexaenoate], the “neuroprotection against OGD-induced neuronal cell death” value [1] is reported as “elicited neuroprotection” and the “neuroprotection against uncompensated oxidative stress” value [2] is reported as “evoked neuroprotection”.
With `CC/C=C\C/C=C\C/C=C\C/C=C\C/C=C\C/C=C\CCCCCCCCCCCCC(=O)O` [32:6n3, (14Z,17Z,20Z,23Z,26Z,29Z)-dotriaconta-14,17,20,23,26,29-hexaenoic acid] the “neuroprotection after OGD by VLC-PUFA precursor” value (from here on “neuroprotection after OGD”) [1, 3] was “provide neuroprotection” and the “neuroprotection after OGD” value [1, 4] was “showed neuroprotection”.
`CC/C=C\C[C@H](O)\C=C/C=C/C=C/[C@H](O)C/C=C\C/C=C\CCCCCCCCCCCCCCC(=O)[O-].[Na+]` [ELV-N34-Na, sodium (16Z,19Z,22R,23E,25E,27Z,29S,31Z)-22,29-dihydroxytetratriaconta-16,19,23,25,27,31-hexaenoate] was tested, and the “neuroprotection against OGD-induced neuronal cell death” value [1] was “elicited neuroprotection” and the “neuroprotection against uncompensated oxidative stress” value [2] was “neuroprotection elicited”.
With `CC/C=C\C/C=C\C/C=C\C/C=C\C/C=C\C/C=C\CCCCCCCCCCCCCCC(=O)O` [34:6n3, (16Z,19Z,22Z,25Z,28Z,31Z)-tetratriaconta-16,19,22,25,28,31-hexaenoic acid] the “neuroprotection after OGD” value [1, 3] was “elicit neuroprotection” and the “neuroprotection after OGD” value [1, 4] was “showed neuroprotection”.

From patent US11684599B2, “Very-long-chain polyunsaturated fatty acids, elovanoid hydroxylated derivatives, and methods of use” (Board of Supervisors of Louisiana State University and …, priority 2017, dated 2023)
